The results in this text go back to patent US20220279787A1, “a-Substituted Phenyl Structure-Containing Compound, Preparation Method Thereof, and Disinfectant” (Henan Ruibo Pharmaceutical Technology Co. Ltd., priority 2019, published 2022).

What all share (type): cell-based
The test system of experiment [1] is Escherichia coli ATCC 25922. In words: Suspension quantitative sterilization experiment, Escherichia coli ATCC 25922. The settings on record: for Activity (killing logarithmic value): suspension method, action time 30 min. On the procedure:
(§1) (5) Operation Method of Suspension Quantitative Experiment:
(§2) a. The freeze-dried strain tube was provided, opened up under an aseptic condition, and an appropriate amount of nutrient broth was added thereto with a capillary pipette. The strain was melted and dispersed by gently blowing and sucking several times. A test tube containing 5.0 mL-10.0 mL of nutrient broth medium was provided, and a small amount of bacterial suspension was dropped thereto, and incubated at 37° C. for 18 h-24 h. The bacterial suspension of the first generation culture was taken by using an inoculation loop, and streaked and inoculated onto a nutrient agar medium plate, and incubated at 37° C. for 18 h-24 h. The typical colonies from the second generation culture was picked out, inoculated onto a nutrient agar slant, and incubated at 37° C. for 18 h-24 h, obtaining the third generation culture.
(§3) b. The monoclonal strains of the third generation culture of Escherichia coli ATCC 25922, Staphylococcus aureus ATCC 29213, and Pseudomonas aeruginosa ATCC 27853 were picked out respectively and placed in 3 mL of NMB. The strains were shaken in a constant temperature culture shaker for 3 h with a rotation speed of 220 rpm, obtaining a bacterial suspension with a concentration of (1-5)×10^8 CFU/mL.
(§4) c. 0.5 mL of bacterial suspension was added to a sterile test tube, and 0.5 mL of an organic interfering substance (0.03 mol/L PBS buffer) was then added thereto. They were mixed to be uniform, and placed in a water bath at 20° C.±1° C. for 5 min. 4.0 mL of the sample to be tested prepared in step (1) was drawn with a sterile pipette and injected into the mixed solution, mixed quickly, and the time was recorded immediately.
(§5) d. After the experimental bacteria interacted with the sample to be tested for the predetermined time of 1 min, 5 min, 15 min and 30 min. 0.5 mL of the mixture of the experimental bacteria and the sample to be tested was drawn respectively and added to 4.5 mL of a neutralizer, and mixed to be uniform.
(§6) e. After 10 min of neutralization, 1.0 mL of the sample solution was drawn, and the number of viable bacteria was determined by viable count method. After the viable count method, sample solution of each pipette was inoculated onto 2 plates. When the number of colonies growing on the plate was large, 10-fold dilution was performed, and then the viable bacteria was cultured and counted.
(§7) f. At the same time, PBS buffer was used to replace the sample to be tested, and a parallel test was performed as a positive control.
(§8) g. All test samples were placed in a 37° C. incubator overnight, and the results were observed.
(§9) h. The experiment was repeated for 3 times, the concentration of viable bacteria (CFU/mL) of each group was calculated, and converted to logarithmic value (N), and then the killing logarithmic value was calculated according to the following equation:
(§10) Killing logarithmic value (KL)=the logarithmic value of the average viable bacteria concentration of the control group (No)−the logarithmic value of the viable bacteria concentration of the test group (Nx).
(§11) When calculating the killing logarithmic value, two digits after the decimal point was kept, and digital round-off was allowed.

In experiment [2] the test system is Staphylococcus aureus ATCC 29213. As to the kind of experiment: Suspension quantitative sterilization experiment, Staphylococcus aureus ATCC 29213. The settings on record: for Activity (killing logarithmic value): suspension method, action time 30 min. The method, then: as §1, §2, §3, §4, §5, §6, §7, §8, §9, §10, §11
Experiment [3] concerns Pseudomonas aeruginosa ATCC 27853. As to the kind of experiment: Suspension quantitative sterilization experiment, Pseudomonas aeruginosa ATCC 27853. Particulars: for Activity (killing logarithmic value): suspension method, action time 30 min. On the procedure: as §1, §2, §3, §4, §5, §6, §7, §8, §9, §10, §11
The subject of experiment [4] is Bacillus subtilis var. niger spores ATCC 9372. As to the kind of experiment: Suspension quantitative experiment, Bacillus subtilis var. niger spores. Particulars: Bacillus subtilis, ATCC9372, 0.5 h, read-out: Activity (killing logarithmic value). The method, then:
(4) Operation Method of Suspension Quantitative Experiment:
a. The Bacillus subtilis var. niger spores ATCC 9372 freeze-dried strain tube was provided, opened up under an aseptic condition, and an appropriate amount of nutrient broth was added thereto with a capillary pipette. The strain was melted and dispersed by gently blowing and sucking several times. A test tube containing 5.0 mL-10.0 mL of nutrient broth medium was provided, and a small amount of bacterial suspension was dropped thereto, and incubated at 37° C. for 18 h-24 h. The bacterial suspension of the first generation culture was taken by using an inoculation loop.
b. The monoclonal strains of the first generation culture were picked out and placed in 3 mL of NMB. The strains were shaken in a constant temperature culture shaker for 3 h with a rotation speed of 220 rpm, obtaining a bacterial suspension with a concentration of (1-5)×10^8 CFU/mL.
as §4
d. After the experimental bacteria interacted with the sample to be tested for the predetermined time. 0.5 mL of the mixture of the experimental bacteria and a disinfectant was drawn respectively and added to 4.5 mL of a neutralizer, and mixed to be uniform.
as §6
h. At the same time, PBS buffer was used to replace the sample to be tested, and a parallel test was performed as a positive control.
f. All test samples were placed in a 37° C. incubator overnight, and the results were observed.
g. The experiment was repeated for 3 times, the concentration of viable bacteria (CFU/mL) of each group was calculated, and converted to logarithmic value (N), and then the killing logarithmic value was calculated according to the following equation:
as §10, §11

`Cc1cc(O)cc(C)c1Cl` [4-Chloro-3,5-dimethylphenol solution, 4-chloro-3,5-dimethylphenol]: the Killing logarithmic value in experiment [1] (0.15 g/L, 1 min) worked out at 1.69; in experiment [1] (0.15 g/L, 5 min), 1.78; in experiment [1] (0.15 g/L, 15 min), 2.32; in experiment [1] (0.15 g/L, 30 min), 2.99; in experiment [1] (0.31 g/L, 1 min), 6.17; in experiment [1] (0.31 g/L, 5 min), 6.17. Besides, the Killing logarithmic value in experiment [1] (0.31 g/L, 15 min) is given as 6.17; in experiment [1] (0.31 g/L, 30 min), 6.17; in experiment [2] (0.15 g/L, 1 min) it was 2.07; in experiment [2] (0.15 g/L, 5 min), 2.74; in experiment [2] (0.15 g/L, 15 min), 2.90; in experiment [2] (0.15 g/L, 30 min) it was 3.16. For the same compound, the Killing logarithmic value was determined as 3.12 in experiment [2] (0.31 g/L, 1 min); 3.30 in experiment [2] (0.31 g/L, 5 min); 3.45 in experiment [2] (0.31 g/L, 15 min); 4.13 in experiment [2] (0.31 g/L, 30 min); 0.78 in experiment [3] (0.15 g/L, 1 min); 0.87 in experiment [3] (0.15 g/L, 5 min). Besides, the Killing logarithmic value came to 0.94 in experiment [3] (0.15 g/L, 15 min); 0.96 in experiment [3] (0.15 g/L, 30 min); 4.77 in experiment [3] (0.31 g/L, 1 min); 4.87 in experiment [3] (0.31 g/L, 5 min); 4.91 in experiment [3] (0.31 g/L, 15 min); 4.95 in experiment [3] (0.31 g/L, 30 min).
For the compound `CNC(=O)C(c1ccc(O)c(O)c1)C1CCCCC1` (stereo not shown) [Example 1, 2-cyclohexyl-2-(3,4-dihydroxyphenyl)-N-methylacetamide], the “Activity (killing logarithmic value)” value in experiment [1] (6.25 g/L) was 1.23; in experiment [2] (6.25 g/L), 1.16; in experiment [3] (6.25 g/L), 1.31. Also, the log reduction at 15000 µg/mL in experiment [4] came to 1.35.
For `CC(C)NC(=O)C(c1ccccc1)c1ccc(O)cc1` (stereo not shown) [Example 2, 2-(4-hydroxyphenyl)-N-isopropyl-2-phenylacetamide], the “Activity (killing logarithmic value)” value in experiment [1] (6.25 g/L) came to 0.97; in experiment [2] (6.25 g/L), 0.89; in experiment [3] (6.25 g/L), 0.99. Further, the log reduction at 15000 µg/mL in experiment [4] is 0.98.
The like results for `CNC(=O)C(c1ccccc1)c1ccc(F)c(F)c1` (stereo not shown) [Example 3, 2-(3,4-difluorophenyl)-N-methyl-2-phenylacetamide] were, in that order, 1.14, 1.54, 1.56 and 2.07.
The like results for `Cc1ccc(C(C(=O)O)c2ccc(O)cc2)cc1` (stereo not shown) [Example 4, 2-(4-hydroxyphenyl)-2-p-tolueneacetic acid] were, in that order, 0.78, 0.75, 0.78 and 1.54.
Take `Oc1ccccc1` [Phenol solution, Phenol]: the Killing logarithmic value in experiment [1] (0.15 g/L, 1 min) is 0.21; in experiment [1] (0.15 g/L, 5 min), 0.29; in experiment [1] (0.15 g/L, 15 min), 0.43; in experiment [1] (0.15 g/L, 30 min) it was 0.47; in experiment [1] (0.31 g/L, 1 min), 0.29; in experiment [1] (0.31 g/L, 5 min), 0.31. Besides, the Killing logarithmic value in experiment [1] (0.31 g/L, 15 min) is reported as 0.46; in experiment [1] (0.31 g/L, 30 min) it was 0.58; in experiment [1] (0.78 g/L, 1 min), 0.32; in experiment [1] (0.78 g/L, 5 min), 0.46; in experiment [1] (0.78 g/L, 15 min) it was 0.63; in experiment [1] (0.78 g/L, 30 min), 0.79. For the same compound, the Killing logarithmic value in experiment [1] (1.56 g/L, 1 min) is 0.47; in experiment [1] (1.56 g/L, 5 min), 0.65; in experiment [1] (1.56 g/L, 15 min), 0.78; in experiment [1] (1.56 g/L, 30 min), 0.99; in experiment [1] (3.12 g/L, 1 min), 0.69; in experiment [1] (3.12 g/L, 5 min), 0.76. The Killing logarithmic value in experiment [1] (3.12 g/L, 15 min) stood at 0.81; in experiment [1] (3.12 g/L, 30 min) it was 1.02; in experiment [1] (6.25 g/L, 1 min) it was 3.57; in experiment [1] (6.25 g/L, 5 min), 3.69; in experiment [1] (6.25 g/L, 15 min), 5.86; in experiment [1] (6.25 g/L, 30 min), 6.17. Further, the Killing logarithmic value in experiment [2] (0.15 g/L, 1 min) was 0.45; in experiment [2] (0.15 g/L, 5 min), 0.48; in experiment [2] (0.15 g/L, 15 min) it was 0.55; in experiment [2] (0.15 g/L, 30 min), 0.73; in experiment [2] (0.31 g/L, 1 min), 0.67; in experiment [2] (0.31 g/L, 5 min), 0.69. In addition, the Killing logarithmic value in experiment [2] (0.31 g/L, 15 min) turned out to be 0.73; in experiment [2] (0.31 g/L, 30 min) it was 0.86; in experiment [2] (0.78 g/L, 1 min), 0.79; in experiment [2] (0.78 g/L, 5 min), 0.82; in experiment [2] (0.78 g/L, 15 min) it was 0.89; in experiment [2] (0.78 g/L, 30 min), 0.95. Besides, the Killing logarithmic value came to 0.86 in experiment [2] (1.56 g/L, 1 min); 0.91 in experiment [2] (1.56 g/L, 5 min); 0.99 in experiment [2] (1.56 g/L, 15 min); 1.02 in experiment [2] (1.56 g/L, 30 min); 1.13 in experiment [2] (3.12 g/L, 1 min); 1.21 in experiment [2] (3.12 g/L, 5 min). Besides, the Killing logarithmic value is reported as 1.23 in experiment [2] (3.12 g/L, 15 min); 1.26 in experiment [2] (3.12 g/L, 30 min); 2.52 in experiment [2] (6.25 g/L, 1 min); 2.62 in experiment [2] (6.25 g/L, 5 min); 2.74 in experiment [2] (6.25 g/L, 15 min); 2.99 in experiment [2] (6.25 g/L, 30 min). In addition, the Killing logarithmic value in experiment [3] (0.15 g/L, 1 min) is 0.46; in experiment [3] (0.15 g/L, 5 min) it was 0.51; in experiment [3] (0.15 g/L, 15 min) it was 0.57; in experiment [3] (0.15 g/L, 30 min), 0.67; in experiment [3] (0.31 g/L, 1 min), 0.76; in experiment [3] (0.31 g/L, 5 min), 0.79. The Killing logarithmic value in experiment [3] (0.31 g/L, 15 min) is on record as 0.84; in experiment [3] (0.31 g/L, 30 min) it was 0.93; in experiment [3] (0.78 g/L, 1 min), 0.99; in experiment [3] (0.78 g/L, 5 min), 1.08; in experiment [3] (0.78 g/L, 15 min), 1.12; in experiment [3] (0.78 g/L, 30 min) it was 1.16. In addition, the Killing logarithmic value in experiment [3] (1.56 g/L, 1 min) is listed as 1.21; in experiment [3] (1.56 g/L, 5 min), 1.25; in experiment [3] (1.56 g/L, 15 min), 1.34; in experiment [3] (1.56 g/L, 30 min), 1.65; in experiment [3] (3.12 g/L, 1 min) it was 1.56; in experiment [3] (3.12 g/L, 5 min) it was 1.86. Also, the Killing logarithmic value in experiment [3] (3.12 g/L, 15 min) amounted to 1.92; in experiment [3] (3.12 g/L, 30 min), 1.98; in experiment [3] (6.25 g/L, 1 min), 3.07; in experiment [3] (6.25 g/L, 5 min), 3.65; in experiment [3] (6.25 g/L, 15 min), 4.55; in experiment [3] (6.25 g/L, 30 min) it was 5.25.
